For five compounds, IC50 results are on record in patent US5721238A, “2,8-disubstituted quinazolinones” (Bayer Aktiengesellschaft, priority 1995, dated 1998).

Assay type in all cases: biochemical
Test [1] relates to PDE II. Description: Inhibition of the phosphodiesterases in vitro: PDE II (cGMP-stimulatable). The note with it: cGMP-stimulatable PDE II from porcine or bovine myocardia; 3HcAMP substrate 10^-6 mol/l, 10^-6 mol/l non-labelled cGMP; pH 7.5; 30 minutes. The method, then: (§1) The cGMP-stimulatable PDE II, the cGMP-inhibitable PDE III and the cAMP-specific PDE IV were isolated from either porcine or bovine myocardia. The Ca-calmodulin-stimulatable PDE I was isolated from the porcine aorta or porcine brain. The cGMP-specific PDE V was obtained from the porcine intestine, porcine aorta and/or human blood platelets. Purification was carried out by anion exchange chromatography on MonoQ^R Pharmacia, essentially by the method of M. Hoey and Miles D. Houslay, Biochemical Pharmacology, Volume 40, 193-202 (1990).
(§2) The enzyme activity is determined in a test batch of 100 μl in 20 mM Tris/HCl buffer of pH 7.5 which contains 5 mM MgCl2, 0.1 mg/ml of bovine serum albumin and either 800 Bq of ^3 HcAMP or ^3 HcGMP. The final concentration of the corresponding nucleotide is 10^-6 mol/l. The reaction is started by addition of the enzyme and the amount of enzyme is chosen such that about 50% of the substrate is converted during the incubation time of 30 minutes. To test the cGMP-stimulatable PDE II, ^3 HcAMP is used as the substrate and 10^-6 mol/l of non-labelled cGMP is added to the batch. To test the Ca-calmodulin-dependent PDE I, 1 μM CaCl2 and 0.1 μM calmodulin are also added to the reaction batch. The reaction is stopped by addition of 100 μl of acetonitrile which contains 1 mM cAMP and 1 mM AMP. 100 μl of the reaction batch are separated on the HPLC and the cleavage products are determined quantitatively "online" using a flow-through scintillation counter. The substance concentration at which the rate of reaction is reduced by 50% is measured.

Test [2] concerns PDE V. The experiment in a line: Inhibition of the phosphodiesterases in vitro: PDE V (cGMP-specific). The note with it: cGMP-specific PDE V from porcine intestine, porcine aorta and/or human blood platelets; nucleotide 10^-6 mol/l; pH 7.5; 30 minutes. The method, then: as §1, §2
Test [3] deals with PDE I. The experiment in a line: Inhibition of the phosphodiesterases in vitro: PDE I (Ca-calmodulin-stimulatable). The note with it: Ca-calmodulin-stimulatable PDE I from porcine aorta or porcine brain; nucleotide 10^-6 mol/l; 1 μM CaCl2, 0.1 μM calmodulin; pH 7.5; 30 minutes. The method, then:
as §1, §2

In general, IC50 refers to the concentration at which inhibition is half-maximal. Lower therefore signals greater potency in that assay. In the case of `CCCOc1ccc(S(=O)(=O)N2CCOCC2)cc1-c1nc2c(C(C)CCCc3ccccc3)cccc2c(=O)[nH]1` (stereo not drawn) [Example 29, 2-(2-n-Propoxy-5-morpholinosulphonylphenyl)-8-(5-phenyl-2-pentyl)-quinazolin-4-(3H)-one], the results for the 50% inhibitory concentration (IC50) in test [1] and in test [2] were 0.5 µM and 1 µM, respectively.
Consider `CCCOc1ccccc1-c1nc2c(C(OC)C(O)Cc3ccccc3)cccc2c(=O)[nH]1` (stereo not drawn) [Example 15, 2-(2-n-Propoxyphenyl)-8-(3-phenyl-1-methoxy-2-hydroxy-1-propyl)-quinazolin-4(3H)-one], for which the half-maximal inhibitory concentration (IC50) in test [3] turned out to be 3 µM; in test [1] it was 5 µM.
For the compound `CCCCCC(O)C(OC)c1cccc2c(=O)[nH]c(-c3ccccc3OCCC)nc12` (stereo not drawn) [Example 14, 2-(2-n-Propoxyphenyl)-8-(1-methoxy-2-hydroxy-1-heptyl)-quinazolin-4(3H)-one], the 50% inhibitory concentration (IC50) in test [3] came out at 5 µM; in test [1], 5 µM; in test [2], 3 µM.
Take `CCCOc1ccccc1-c1nc2c(C(OC)C(O)CCc3ccccc3)cccc2c(=O)[nH]1` (stereo not drawn) [Example 16, 2-(2-n-Propoxyphenyl)-8-(4-phenyl-1-methoxy-2-hydroxy-1-butyl)-quinazolin-4(3H)-one]: the half-maximal inhibitory concentration (IC50) in test [1] and in test [2] was 5 µM throughout.
In the case of `CCCCCC(O)C(CC)c1cccc2c(=O)[nH]c(-c3ccccc3OCCC)nc12` (stereo not drawn) [Example 20, 2-(2-n-Propoxyphenyl)-8-(4-hydroxy-3-nonyl)-quinazolin-4(3H)-one], the IC50 is 10 µM in test [3], 2 µM in test [1] and 5 µM in test [2].
